pIC50: −log10 of the molar value.
Experiments:
Experiment in all cases: AlphaScreen Assay
Ephrin type-B receptor 4 = target: T1, Ephrin type-B receptor 4 (Homo sapiens, UniProt P54760)
T1 sequence (P54760 whole entry): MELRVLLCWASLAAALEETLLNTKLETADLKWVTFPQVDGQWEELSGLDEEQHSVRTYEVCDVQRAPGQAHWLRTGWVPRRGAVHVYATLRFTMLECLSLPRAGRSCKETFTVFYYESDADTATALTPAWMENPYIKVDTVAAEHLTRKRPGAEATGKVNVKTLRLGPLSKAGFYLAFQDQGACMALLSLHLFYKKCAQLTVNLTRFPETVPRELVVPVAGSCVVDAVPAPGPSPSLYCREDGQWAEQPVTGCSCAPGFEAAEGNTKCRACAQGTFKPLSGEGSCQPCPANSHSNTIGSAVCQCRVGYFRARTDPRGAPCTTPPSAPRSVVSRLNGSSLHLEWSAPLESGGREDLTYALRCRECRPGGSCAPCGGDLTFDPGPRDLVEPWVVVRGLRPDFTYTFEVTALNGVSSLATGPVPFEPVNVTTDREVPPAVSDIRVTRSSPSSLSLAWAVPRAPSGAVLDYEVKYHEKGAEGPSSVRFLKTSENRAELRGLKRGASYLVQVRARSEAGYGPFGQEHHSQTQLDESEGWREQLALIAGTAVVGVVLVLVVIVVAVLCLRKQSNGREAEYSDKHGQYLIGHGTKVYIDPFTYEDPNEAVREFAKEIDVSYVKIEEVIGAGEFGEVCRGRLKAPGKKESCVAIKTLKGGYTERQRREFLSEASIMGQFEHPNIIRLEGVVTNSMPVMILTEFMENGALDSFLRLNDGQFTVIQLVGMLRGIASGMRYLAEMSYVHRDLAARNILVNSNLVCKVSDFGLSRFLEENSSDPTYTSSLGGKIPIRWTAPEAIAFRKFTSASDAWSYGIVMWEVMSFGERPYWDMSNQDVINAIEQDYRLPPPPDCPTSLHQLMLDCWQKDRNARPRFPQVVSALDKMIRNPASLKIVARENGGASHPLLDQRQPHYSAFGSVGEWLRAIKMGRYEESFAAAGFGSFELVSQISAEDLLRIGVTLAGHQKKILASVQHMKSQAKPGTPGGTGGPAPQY

Ephrin type-A receptor 2 = Ephrin type-A receptor 2 (Homo sapiens, UniProt P29317)
[1] = target: Vascular endothelial growth factor receptor 2 (Homo sapiens, UniProt P35968)
Chain of Vascular endothelial growth factor receptor 2 (P35968 whole entry): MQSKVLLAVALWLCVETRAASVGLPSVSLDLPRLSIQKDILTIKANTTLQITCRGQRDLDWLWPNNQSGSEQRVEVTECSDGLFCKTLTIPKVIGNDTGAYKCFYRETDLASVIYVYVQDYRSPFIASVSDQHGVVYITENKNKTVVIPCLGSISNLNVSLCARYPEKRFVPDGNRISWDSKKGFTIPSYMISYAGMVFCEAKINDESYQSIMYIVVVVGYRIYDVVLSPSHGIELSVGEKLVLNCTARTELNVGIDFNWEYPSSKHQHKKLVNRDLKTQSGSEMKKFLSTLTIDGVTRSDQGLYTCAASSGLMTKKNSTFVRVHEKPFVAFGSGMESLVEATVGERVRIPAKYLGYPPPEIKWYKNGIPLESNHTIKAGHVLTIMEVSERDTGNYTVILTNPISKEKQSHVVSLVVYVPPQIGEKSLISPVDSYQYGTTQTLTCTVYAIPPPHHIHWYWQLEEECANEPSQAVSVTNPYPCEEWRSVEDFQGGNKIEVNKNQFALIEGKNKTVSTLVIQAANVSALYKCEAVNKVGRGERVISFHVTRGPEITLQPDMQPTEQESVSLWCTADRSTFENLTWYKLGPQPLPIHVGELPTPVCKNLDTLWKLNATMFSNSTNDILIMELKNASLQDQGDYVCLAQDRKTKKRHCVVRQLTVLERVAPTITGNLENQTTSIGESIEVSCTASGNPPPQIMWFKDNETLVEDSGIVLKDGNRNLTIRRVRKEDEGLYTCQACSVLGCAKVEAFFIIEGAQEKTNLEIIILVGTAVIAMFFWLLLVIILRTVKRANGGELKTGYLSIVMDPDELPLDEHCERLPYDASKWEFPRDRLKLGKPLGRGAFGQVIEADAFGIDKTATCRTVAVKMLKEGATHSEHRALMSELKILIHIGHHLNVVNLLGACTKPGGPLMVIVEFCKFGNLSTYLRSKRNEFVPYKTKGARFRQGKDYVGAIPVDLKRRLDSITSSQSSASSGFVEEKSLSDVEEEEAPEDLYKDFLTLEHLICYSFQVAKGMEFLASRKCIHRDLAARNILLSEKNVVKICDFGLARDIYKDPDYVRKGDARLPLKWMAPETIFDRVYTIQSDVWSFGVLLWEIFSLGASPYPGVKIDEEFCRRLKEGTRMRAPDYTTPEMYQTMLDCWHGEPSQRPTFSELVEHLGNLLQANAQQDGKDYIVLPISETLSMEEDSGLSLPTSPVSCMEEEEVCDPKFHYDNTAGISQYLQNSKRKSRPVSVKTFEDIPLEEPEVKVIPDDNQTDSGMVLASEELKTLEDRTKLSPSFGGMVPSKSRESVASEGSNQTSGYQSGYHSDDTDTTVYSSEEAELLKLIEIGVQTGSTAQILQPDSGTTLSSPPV

Chain of Ephrin type-A receptor 2 (P29317 whole entry): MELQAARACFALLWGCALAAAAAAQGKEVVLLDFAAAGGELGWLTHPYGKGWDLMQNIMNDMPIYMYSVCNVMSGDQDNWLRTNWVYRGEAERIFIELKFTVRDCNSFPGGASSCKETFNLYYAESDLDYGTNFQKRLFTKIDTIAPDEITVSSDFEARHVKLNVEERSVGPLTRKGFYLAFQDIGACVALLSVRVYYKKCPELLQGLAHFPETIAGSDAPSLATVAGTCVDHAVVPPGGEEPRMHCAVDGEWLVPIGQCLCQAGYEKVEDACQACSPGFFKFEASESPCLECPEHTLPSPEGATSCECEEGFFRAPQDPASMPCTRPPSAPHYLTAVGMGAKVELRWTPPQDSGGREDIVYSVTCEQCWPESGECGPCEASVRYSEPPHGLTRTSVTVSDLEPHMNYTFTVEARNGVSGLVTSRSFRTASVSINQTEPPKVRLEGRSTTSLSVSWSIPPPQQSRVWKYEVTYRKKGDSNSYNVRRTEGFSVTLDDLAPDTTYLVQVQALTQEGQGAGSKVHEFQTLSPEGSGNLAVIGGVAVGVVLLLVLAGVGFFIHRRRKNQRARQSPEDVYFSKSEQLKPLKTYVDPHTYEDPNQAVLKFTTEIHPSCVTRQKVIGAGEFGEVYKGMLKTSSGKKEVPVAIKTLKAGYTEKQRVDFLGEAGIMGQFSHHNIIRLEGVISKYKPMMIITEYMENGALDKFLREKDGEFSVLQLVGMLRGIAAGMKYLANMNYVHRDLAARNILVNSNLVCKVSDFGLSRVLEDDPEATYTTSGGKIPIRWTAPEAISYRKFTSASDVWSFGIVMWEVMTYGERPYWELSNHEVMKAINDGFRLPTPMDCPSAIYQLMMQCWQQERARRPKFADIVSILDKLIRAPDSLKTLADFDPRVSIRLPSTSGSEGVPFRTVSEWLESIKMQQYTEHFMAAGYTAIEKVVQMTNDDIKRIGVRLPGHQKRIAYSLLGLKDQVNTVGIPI

Compound | IC50 (Ephrin type-B receptor 4) | IC50 (Ephrin type-A receptor 2) | IC50 [1] | pIC50 (Ephrin type-B receptor 4) | pIC50 (Ephrin type-A receptor 2)
COc1cc2c(Nc3ccc(Cl)c(Cl)c3)ncnc2cc1OCC1=CC2C(C(F)(F)F)=NN(C)C2S1 (stereo unspecified) [US9796704, Entry 176] | in the range around 0.525 µM | in the range around 0.525 µM | in the range around 0.525 µM |  | 
COc1cc2c(Nc3ccc(C)c(Br)c3)ncnc2cc1O[C@@H]1CO[C@@H]2[C@H]1OC[C@H]2F [US9796704, Entry 131] | in the range around 0.525 µM | in the range around 0.525 µM | in the range around 0.525 µM |  | 
COc1cc2c(Nc3ccc(Cl)c(Cl)c3)ncnc2cc1OCc1cc(-c2ccccc2)no1 [US9796704, Entry 177] | in the range around 0.525 µM | in the range around 0.525 µM | in the range around 0.525 µM |  | 
COc1cc2c(Nc3ccc(Cl)c(Cl)c3)ncnc2cc1OCc1nc(-c2ccc(Cl)cc2)no1 [US9796704, Entry 168] | in the range around 0.525 µM | in the range around 0.525 µM | in the range around 0.525 µM |  | 
COc1cc2c(Nc3ccc(Cl)c(Cl)c3)ncnc2cc1OC[C@@H]1O[C@@H](OC)[C@@H](O)[C@H](O)[C@H]1O [US9796704, Entry 194] |  | in the range around 0.525 µM | in the range around 0.525 µM | > 7.30 | 
C=C1CO[C@@H]2[C@@H](Oc3cc4ncnc(Nc5ccc(Br)c(Cl)c5)c4cc3OC)CO[C@H]12 [US9796704, Entry 81] | in the range around 0.525 µM | in the range around 0.525 µM | in the range around 0.525 µM |  | 
COc1cc2c(Nc3cccc(C(F)(F)F)c3F)ncnc2cc1O[C@@H]1CO[C@@H]2[C@H]1OC[C@H]2F [US9796704, Entry 123] | in the range around 0.525 µM | in the range around 0.525 µM | in the range around 0.525 µM |  | 
COc1cc2c(Nc3ccc(Cl)c(Cl)c3)ncnc2cc1OCc1nc2ccccc2s1 [US9796704, Entry 162] | in the range around 0.525 µM | in the range around 0.525 µM | in the range around 0.525 µM |  | 
COc1cc2c(Nc3ccccc3F)ncnc2cc1O[C@@H]1CO[C@@H]2[C@H]1OC[C@H]2F [US9796704, Entry 113] | in the range around 0.525 µM | in the range around 0.525 µM | in the range around 0.525 µM |  | 
COc1cc2c(Nc3ccc(Cl)c(Cl)c3)ncnc2cc1OCc1cc(Cl)cc2c1OCOC2 [US9796704, Entry 174] | in the range around 10.5 µM | in the range around 10.5 µM | in the range around 0.525 µM |  | 
COc1cc2c(Nc3ccc(Br)c(Cl)c3F)ncnc2cc1OC[C@H]1CN2CCOCC2CO1 (stereo partly specified) [US9796704, Entry 30] |  |  | in the range around 0.525 µM | > 7.30 | > 7.30
COc1cc2c(Nc3cccc(Cl)c3F)ncnc2cc1O[C@@H]1CO[C@@H]2[C@H]1OC[C@H]2F [US9796704, Entry 88] | in the range around 0.525 µM | in the range around 0.525 µM | in the range around 10.5 µM |  | 
COc1cc2c(Nc3cccc(Cl)c3C)ncnc2cc1O[C@@H]1CO[C@@H]2[C@H]1OC[C@H]2F [US9796704, Entry 110] | in the range around 0.525 µM | in the range around 0.525 µM | in the range around 0.525 µM |  | 
COc1cc2c(Nc3cc(F)ccc3F)ncnc2cc1O[C@@H]1CO[C@@H]2[C@H]1OC[C@H]2F [US9796704, Entry 91] | in the range around 0.525 µM | in the range around 0.525 µM | in the range around 0.525 µM |  | 
COc1cc2c(Nc3cc(Cl)ccc3F)ncnc2cc1O[C@@H]1CO[C@@H]2[C@H]1OC[C@H]2F [US9796704, Entry 93] | in the range around 0.525 µM | in the range around 0.525 µM | in the range around 0.525 µM |  | 
COc1cc2c(Nc3ccc(Cl)c(Cl)c3)ncnc2cc1OCC1CO[C@@H]2C(OC)CO[C@H]12 (stereo partly specified) [US9796704, Entry 47] | in the range around 10.5 µM | in the range around 10.5 µM | in the range around 10.5 µM |  | 

Compound | IC50 (Ephrin type-B receptor 4) | IC50 (Ephrin type-A receptor 2) | IC50 [1] | pIC50 (Ephrin type-B receptor 4) | pIC50 (Ephrin type-A receptor 2)
COc1cc2c(Nc3cc(F)c(Oc4ccc(Cl)cc4)c(F)c3)ncnc2cc1O[C@@H]1CO[C@@H]2[C@H]1OC[C@H]2F [US9796704, Entry 101] | in the range around 0.525 µM | in the range around 0.525 µM | in the range around 0.525 µM |  | 
COc1cc2c(Nc3ccc(Cl)c(Cl)c3F)ncnc2cc1OCC1CCC2CCCCN2C1 (stereo unspecified) [US9796704, Entry 83] | in the range around 0.525 µM | in the range around 0.525 µM | in the range around 0.525 µM |  | 
COc1cc2c(Nc3ccc(Cl)c(Cl)c3)ncnc2cc1OCc1c(C)cc(C)cc1C [US9796704, Entry 178] | in the range around 10.5 µM | in the range around 10.5 µM | in the range around 10.5 µM |  | 
COc1cc2c(Nc3ccc(Br)c(Cl)c3F)ncnc2cc1O[C@@H]1CO[C@@H]2[C@H]1OC[C@H]2F [US9796704, Entry 102] | in the range around 0.525 µM | in the range around 0.525 µM | in the range around 0.525 µM |  | 
COc1cc2c(Nc3ccc(Cl)c(C(F)(F)F)c3)ncnc2cc1O[C@@H]1CO[C@@H]2[C@H]1OC[C@H]2F [US9796704, Entry 121] | in the range around 0.525 µM | in the range around 0.525 µM | in the range around 0.525 µM |  | 
COc1cc2c(Nc3ccc(F)c(Cl)c3F)ncnc2cc1OCC1CO[C@@H]2[C@@H](OC)CO[C@H]12 (stereo partly specified) [US9796704, Entry 45] | in the range around 10.5 µM | in the range around 10.5 µM | in the range around 10.5 µM |  | 
COc1cc2c(Nc3ccc(Br)cc3)ncnc2cc1O[C@@H]1CO[C@@H]2[C@H]1OC[C@H]2F [US9796704, Entry 130] | in the range around 0.525 µM | in the range around 0.525 µM | in the range around 0.525 µM |  | 
COc1cc2c(Nc3ccc(Cl)c(Cl)c3)ncnc2cc1OCc1cnn(-c2ccccc2)c1 [US9796704, Entry 165] | in the range around 0.525 µM | in the range around 0.525 µM | in the range around 10.5 µM |  | 
COc1cc(Nc2ncnc3cc(O[C@@H]4CO[C@@H]5[C@H]4OC[C@H]5F)c(OC)cc23)c(OC)cc1Cl [US9796704, Entry 136] | in the range around 0.525 µM | in the range around 0.525 µM | in the range around 0.525 µM |  | 
COc1cc2c(Nc3ccc(Cl)c(Cl)c3)ncnc2cc1OCc1csc(C)n1 [US9796704, Entry 173] | in the range around 0.525 µM | in the range around 0.525 µM | in the range around 0.525 µM |  | 
COc1cc2c(Nc3ccc(Cl)c(Cl)c3)ncnc2cc1OCc1ccc(Cl)nc1 [US9796704, Entry 171] | in the range around 0.525 µM | in the range around 10.5 µM | in the range around 0.525 µM |  | 
COc1cc2c(Nc3c(F)cc(F)cc3F)ncnc2cc1O[C@@H]1CO[C@@H]2[C@H]1OC[C@H]2F [US9796704, Entry 100] | in the range around 0.525 µM | in the range around 0.525 µM | in the range around 0.525 µM |  | 
COc1cc2c(Nc3ccc(F)cc3C(F)(F)F)ncnc2cc1O[C@@H]1CO[C@@H]2[C@H]1OC[C@H]2F [US9796704, Entry 126] | in the range around 0.525 µM | in the range around 0.525 µM | in the range around 10.5 µM |  | 
COc1cc2c(Nc3ccc(F)cc3Br)ncnc2cc1O[C@@H]1CO[C@@H]2[C@H]1OC[C@H]2F [US9796704, Entry 86] | in the range around 0.525 µM | in the range around 0.525 µM | in the range around 0.525 µM |  | 
COc1cc2c(Nc3ccc(F)c(Cl)c3)ncnc2cc1O[C@@H]1CO[C@@H]2[C@H]1OC[C@H]2F [US9796704, Entry 95] | in the range around 0.525 µM | in the range around 0.525 µM | in the range around 0.525 µM |  | 
COc1cc2c(Nc3ccc(Cl)c(Cl)c3)ncnc2cc1OCc1c(OC)ccc2cc(Br)ccc12 [US9796704, Entry 169] | in the range around 0.525 µM | in the range around 10.5 µM | in the range around 0.525 µM |  | 

Source: BindingDB's records for patent US9796704 (SYMPHONY EVOLUTION, INC., 2017)
